Laboratory results: article PMC11396129, “Oxindole–benzothiazole hybrids as CDK2 inhibitors and anticancer agents: design, synthesis and biological evaluation” (BMC Chemistry, 2024)

Columns and labels:
Format in all cases: cell-based, human
[1] = system: CCRF-CEM; test: NCI 60 panel growth inhibition (SRB), leukemia; settings: 10 μM
Protocol: (§1) Screening of cytotoxic activity against a panel of sixty human tumor cell lines The selected compounds by NCI were evaluated for their anticancer activity in a two- stage process. […] Then, the output from the single dose screen is reported as a mean graph. […] Assay protocol. […] For a typical screening experiment, cells are inoculated into 96 well microtiter plates in 100 µL at plating densities ranging from 5000 to 40,000 cells/well depending on the doubling time of individual cell lines. […] After 24 h, two plates of each cell line are fixed in situ with TCA, to represent a measurement of the cell population for each cell line at the time of drug addition (Tz). The experimental drugs are solubilized in dimethyl sulfoxide at 400-fold the desired final maximum test concentration and stored frozen prior to use. At the time of drug addition, an aliquot of frozen concentrate is thawed and diluted to twice the desired final maximum test concentration with complete medium containing 50 µg/mL gentamicin. Additional four, 10-fold or ½ log serial dilutions are made to provide a total of five drug concentrations plus control. […] For adherent cells, the assay is terminated by the addition of cold TCA. […] The supernatant is discarded, and the plates are washed five times with tap water and air dried. […] Using the seven absorbance measurements [time zero, (Tz), control growth, (C), and test growth in the presence of drug at the five concentration levels (Ti)], the percentage growth is calculated at each of the drug concentrations levels. Percentage growth inhibition is calculated as: [(Ti Tz)/(C–Tz)] x 100 for concentrations for which Ti>/=Tz and [(Ti-Tz)/Tz] x 100 for concentrations for which Ti < Tz. Three dose response parameters are calculated for each experimental agent. […] The drug concentration resulting in total growth inhibition (TGI) is calculated from Ti = Tz. […] Values are calculated for each of these three parameters if the level of activity is reached; however, if the effect is not reached or is exceeded, the value for that parameter is expressed as greater or less than the maximum or minimum concentration tested.

[2] = system: HL-60(TB); test: NCI 60 panel growth inhibition (SRB), leukemia; settings: HL-60(TB), 10 μM
Protocol: as §1

[3] = system: K-562; test: NCI 60 panel growth inhibition (SRB), leukemia; settings: K-562, 10 μM
Protocol: as §1

[4] = system: MOLT-4; test: NCI 60 panel growth inhibition (SRB), leukemia; settings: MOLT-4, 10 μM
Protocol: as §1

[5] = system: RPMI-8226; test: NCI 60 panel growth inhibition (SRB), leukemia; settings: RPMI-8226, 10 μM
Protocol: as §1

[6] = system: SR; test: NCI 60 panel growth inhibition (SRB), leukemia; settings: 10 μM
Protocol: as §1

[7] = system: SF-268; test: NCI 60 panel growth inhibition (SRB), CNS cancer; settings: SF-268, 10 μM
Protocol: as §1

[8] = system: SF-295; test: NCI 60 panel growth inhibition (SRB), CNS cancer; settings: SF-295, 10 μM
Protocol: as §1

[9] = system: SF-539; test: NCI 60 panel growth inhibition (SRB), CNS cancer; settings: SF-539, 10 μM
Protocol: as §1

[10] = system: SNB-19; test: NCI 60 panel growth inhibition (SRB), CNS cancer; settings: SNB-19, 10 μM
Protocol: as §1

[11] = system: SNB-75; test: NCI 60 panel growth inhibition (SRB), CNS cancer; settings: SNB-75, 10 μM
Protocol: as §1

[12] = system: U251; test: NCI 60 panel growth inhibition (SRB), CNS cancer; settings: U251, 10 μM
Protocol: as §1

[13] = system: LOX IMVI; test: NCI 60 panel growth inhibition (SRB), melanoma; settings: 10 μM
Protocol: as §1

[14] = system: M14; test: NCI 60 panel growth inhibition (SRB), melanoma; settings: M14, 10 μM
Protocol: as §1

[15] = system: MALME-3M; test: NCI 60 panel growth inhibition (SRB), melanoma; settings: 10 μM
Protocol: as §1

[16] = system: MDA-MB-435; test: NCI 60 panel growth inhibition (SRB), melanoma; settings: MDA-MB-435, 10 μM
Protocol: as §1

[17] = system: SK-MEL-28; test: NCI 60 panel growth inhibition (SRB), melanoma; settings: SK-MEL-28, 10 μM
Protocol: as §1

[18] = system: SK-MEL-5; test: NCI 60 panel growth inhibition (SRB), melanoma; settings: SK-MEL-5, 10 μM
Protocol: as §1

[19] = system: UACC-257; test: NCI 60 panel growth inhibition (SRB), melanoma; settings: UACC-257, 10 μM
Protocol: as §1

[20] = system: UACC-62; test: NCI 60 panel growth inhibition (SRB), melanoma; settings: UACC-62, 10 μM
Protocol: as §1

[21] = system: IGROV1; test: NCI 60 panel growth inhibition (SRB), ovarian cancer; settings: IGROV1, 10 μM
Method in brief: (§2)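 Percent growth per concentration, normalised to Tz and control wells, yields three dose-response parameters including TGI (Ti = Tz). Where activity is not reached or is exceeded, the value is reported as greater or less than the tested extreme.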

[22] = system: OVCAR-3; test: as above; settings: OVCAR-3, 10 μM
Method in brief: as §2

[23] = system: OVCAR-4; test: as above; settings: OVCAR-4, 10 μM
Method in brief: as §2

[24] = system: OVCAR-5; test: as above; settings: OVCAR-5, 10 μM
Method in brief: as §2

[25] = system: SK-OV-3; test: as above; settings: SK-OV-3, 10 μM
Method in brief: as §2

[26] = system: HT29; test: NCI 60 panel growth inhibition (SRB), colon cancer; settings: HT29, 10 μM
Method in brief: as §2

Row | SMILES | GI% [1] | GI% [2] | GI% [3] | GI% [4] | GI% [5] | GI% [6] | GI% [7] | GI% [8] | GI% [9] | GI% [10] | GI% [11] | GI% [12] | GI% [13] | GI% [14] | GI% [15] | GI% [16] | GI% [17] | GI% [18] | GI% [19] | GI% [20] | also measured
1 | COc1ccc2c(c1)C(=NNC(=O)COc1c(OC)cccc1-c1nc3ccccc3s1)C(=O)N2 [Compound 9i, 2-(2-(Benzo[d]thiazol-2-yl)-6-methoxyphenoxy)-N′-(5-methoxy-2-oxoindolin-3-ylidene)acetohydrazide] | 44.24% | – (GI% < 5%) | 21.95% | 45.30% | 47.68% | – (GI% < 5%) | – (GI% < 5%) | 13.86% | 6.47% | 11.58% | – (GI% < 5%) | – (GI% < 5%) | – (GI% < 5%) | 7.92% | 12.81% | – (GI% < 5%) | – (GI% < 5%) | 51.82% | – (GI% < 5%) | 25.33% | GI% [21]: – (GI% < 5%); GI% [22]: – (GI% < 5%); GI% [23]: 20.14%; GI% [24]: – (GI% < 5%); GI% [25]: 9.98%
2 | COc1cccc(-c2nc3ccccc3s2)c1OCC(=O)NN=C1C(=O)Nc2ccc([N+](=O)[O-])cc21 [Compound 9j, 2-(2-(Benzo[d]thiazol-2-yl)-6-methoxyphenoxy)-N′-(5-nitro-2-oxoindolin-3-ylidene)acetohydrazide] | 34.81% | – (GI% < 5%) | – (GI% < 5%) | 9.01% | 22.11% | – (GI% < 5%) | – (GI% < 5%) | 11.71% | – (GI% < 5%) | 5.77% | – (GI% < 5%) | – (GI% < 5%) | – (GI% < 5%) | 8.57% | 12.74% | 6.00% | – (GI% < 5%) | 24.59% | 5.08% | 11.06% | GI% [21]: – (GI% < 5%); GI% [22]: – (GI% < 5%); GI% [23]: 5.61%; GI% [24]: – (GI% < 5%); GI% [25]: – (GI% < 5%)
3 | CNC(=O)c1nn(C)c2c1C(C)(C)Cc1cnc(Nc3ccc(N4CCN(C)CC4)cc3)nc1-2 [Milciclib, reference compound] | 89.60% | 127.0% | 94.6% | 97.70% | 99.60% | 101.8% | 92.00% | 84.70% | 128.60% | 87.7% | 120.6% | 91.50% | 94.70% | 87.5% | 108.70% | 78.9% | 83.80% | 92.70% | 114.80% | 109.5% | GI% [26]: 116.2%; GI% [21]: 97.50%; GI% [22]: 79.30%; GI% [23]: 87.10%; GI% [24]: 90.90%; GI% [25]: 116.90%
